The record followed here is patent US6710075B2, “Therapeutic compounds and methods” (The Government of the State of Sarawak, Malaysia, priority 2000, dated 2004).

Assay type in all cases: cell-based, human
The subject of assay [1] is A549 cells. Briefly: DNA synthesis, [14C]-thymidine uptake, A549 cells. The conditions noted are these: Homo sapiens, A549, 72 h. The source says: (a) Compounds A and B were identified from a bark sample of Aglaia leptantha through their ability to inhibit production of Tumour Necrosis Factor-α (TNF-α) by THP-1 human promonocytic leukemia cells (Tsuchiya, et al, Int. J. Cancer, 1980, 26(2):171-6) activated with lipopolysaccharide (LPS). Table 4 summarises the results comparing the activity of Compounds A and B for inhibition of TNF-α production to their effects on general cell metabolism measured using WST-1 reduction, DNA synthesis and protein synthesis assays for THP-1 cells. […] For comparison, the effects of Compounds A and B on A549 lung epithelial carcinoma cells (Leiber et al, Int. J. Cancer, 1976, 17(1)-62-70) were also measured and the data is also included in Table 4.

Assay [2] concerns THP-1 cells. As to the kind of experiment: DNA content analysis (cell cycle and viability) of THP-1 cells. The conditions noted are these: THP-1, 10 nM, 2 days. The protocol: THP-1 cells were cultured for 2 days with the indicated concentration of Compound A or 1000 nM paclitaxel then collected and fixed in 70% ethanol prior to staining with propidium iodide and DNA content determined by flow cytometry. The numbers indicate the % of cells in the various cell cycle phases relative to all cells with ≧2N DNA content and also the % dead cells (ie. subdiploid≦2N cells) to the left of the marker (the vertical line) that arose during the culture period.

Assay [3] relates to K562 leukemic cells. Briefly: DNA content analysis (cell cycle) of K562 leukemic cells. The conditions noted are these: K562, 10-15 nM, 3 days. On the procedure:
K562 cells were cultured for 3 days with the indicated concentration of Compounds A or B then collected and fixed in 70% ethanol prior to staining with propidium iodide and DNA content determined by flow cytometry. The numbers indicate the % of cells in G0/G1, S and G2/M phases of the cell cycle respectively relative to all cells with ≧2N DNA content.

For orientation: IC50 means the concentration that gives 50% inhibition. For `COC(=O)[C@H]1[C@@H](O)[C@@]2(O)c3c(OC)cc(OC4OC(C(O)CO)COC4OC)cc3O[C@@]2(c2ccc(OC)cc2)[C@@H]1c1ccccc1` (single isomer, unassigned) [Compound A], the IC50 in assay [1] turned out to be 7 nM. Also, the results for the “cell cycle phase accumulation” value in assay [2] and in assay [3] were “caused cells to accumulate in the G0/G1 phases of the cell cycle” and “characteristic accumulation of cells in G2/M phases of the cell cycle”, respectively. For the same compound, the “accumulation of dead cells” value in assay [2] (untreated 7%) is 17%.
